Measured values published in patent US9040261B2, “Compounds as L-cystine crystallization inhibitors and uses thereof” (NEW YORK UNIVERSITY, priority 2009, dated 2015).
Entries after “also recorded” stand apart in the source; their conditions may differ.

Assays:
[1] = dosages between 100 mg/L and 20 g/L per day; ATP, reactive oxygen species levels, cell viability; cited from earlier work
[2] = Real time in situ AFM step velocity measurements, static conditions
Description: A Digital Instruments (Santa Barbara, Calif.) Nanoscope IIIa Multimode system was used for topographical and lattice imaging. All measurements were performed in contact mode using Veeco NP_B Si3N4 cantilever tips with a spring constant of 0.12N/m (triangular, 196 μm length, 41 μm width) on a glass cantilever holder, and a liquid cell was created for in situ step velocity measurements. All L-cystine crystals for AFM measurements were prepared by method 1. Crystals were transferred onto an AFM specimen disk coated with partially cured (1 hr) UV-curable optical cement (Type SK-9, EMS Acquisition Corp.) by gently pressing the disk against hexagonal platelets or L-cystine needles isolated by filtration (Whatman Nuclepore membrane, 8 μm). The (0001) face of hexagonal platelets was exposed normal to the disk for AFM analysis with growth occurring along equivalent {1010} faces in the lateral directions, while the sides of L-cystine needles were exposed normal to the disc. The partially cured polymer with adhered crystals was completely cured by additional UV radiation (2 hrs) prior to analysis. Measurements of individual step heights for hexagonal L-cystine crystals were acquired in air (contact mode) at a scan rate of 1.00 Hz and 256 samples per line over a 15×15 μm^2 surface area. Integral and proportional gains were set to the highest possible values without obtaining feedback. Four hexagonal crystals (5 areas per crystal) were analyzed for statistical step height distributions, which were calculated from >10^3 individual steps. Lattice-resolved images of crystal surfaces were acquired in water (contact mode) using a scan rate of 112 Hz over a 12×12 nm^2 area.
Real time in situ step velocity measurements of L-cystine growth were assessed along six structurally-equivalent {1010} faces of the hexagonal structure. A liquid cell was created with the glass cantilever tip holder, and working solutions were injected through a 1-mL syringe. Prior to injecting the growth medium (i.e. supersaturated L-cystine solution), crystals were etched with deionized water in the fluid cell for one hour to remove amorphous deposits or impurities that may be present on the surface. Supersaturated solutions (0.5 g/L) were generated by adding L-cystine to deionized water, boiling the solution on a heating mantle for 20 min to completely dissolve the solute, and allowing the solution to cool for 20 min on the heating mantle before transferring the solution (via syringe) to the AFM fluid cell. […]
The effect of additives on crystal growth rates was investigated. […] For each measurement, growth was first assessed in the absence of additive, then in the presence of additive on the identical area of the crystal surface to analyze relative changes in step velocity. […]

Structure (SMILES): COC(=O)[C@@H](N)CSSC[C@H](N)C(=O)OC.Cl.Cl [CDME, Cystine Dimethyl Ester Dihydrochloride]
- toxicity in cell culture and in vivo animal studies [1]: possible adverse affects
- advancement of higher {1010} steps ([2]; 5.0 g/L CDME, 0.5 g/L L-cystine, step heights >0.6 nm, larger than 1 nm, Dihydrochloride): suppresses; also recorded: completely suppressed
- Step velocity of 1-nm steps ([2]; large excess of CDME (5 g/L), 29 nm/min in the absence of additive): 7 nm/min
